According to patent EP0941988A2, “Benzamidoxime derivatives, intermediates and process for their preparation and their use as fungicides” (BASF AKTIENGESELLSCHAFT, priority 1998, dated 1999):

Key:
[1] = test system: Weizenmehltau (Erysiphe graminis f.sp.tritici); assay: Efficacy against wheat powdery mildew, protective spray on wheat seedlings cv. "Frühgold" (Beispiel 2); type: in vivo; conditions: inoculated 24 h after spray coating dried, visual rating after 7 days, concentration not given, untreated plants 80 % infested
Procedure: Beispiel 2: Wirksamkeit gegen Weizenmehltau
Blätter von in Töpfen gewachsenen Weizenkeimlingen der Sorte "Frühgold" wurden mit wäßriger Wirkstoffaufbereitung, die aus einer Stammlösung bestehend aus 10 % Wirkstoff, 63% Cyclohexanon und 27 % Emulgiermittel angesetzt wurde, bis zur Tropfnässe besprüht und 24 h nach dem Antrocknen des Spritzbelages mit Sporen des Weizenmehltaus (Erysiphe graminis f.sp.tritici) bestäubt. Die Versuchspflanzen wurden anschließend im Gewächshaus bei Temperaturen zwischen 20 und 22 °C und 75 bis 80 % relativer Luftfeuchtigkeit aufgestellt. Nach 7 Tagen wurde das Ausmaß der Mehltauentwicklung visuell in % der gesamten Blattfläche ermittelt.

[2] = test system: Weizenmehltau (Erysiphe graminis forma specialis tritici); assay: Efficacy against wheat powdery mildew, protective spray on wheat seedlings cv. "Kanzler" (Anwendungsbeispiel 1); type: in vivo; conditions: inoculated 24 h after spraying, rating after 7 days, untreated 80 %
From the text: Anwendungsbeispiel 1 - Wirksamkeit gegen Weizenmehltau
Blätter von in Töpfen gewachsenen Weizenkeimlingen der Sorte ? Kanzler" wurden mit wäßriger Wirkstoffaufbereitung, die aus einer Stammlösung bestehend aus 10 % Wirkstoff, 63 % Cyclohexanon und 27 % Emulgiermittel angesetzt wurde, bis zur Tropfnässe besprüht und 24 Stunden nach dem Antrocknen des Spritzbelages mit Sporen des Weizenmehltaus (Erysiphe graminis forma specialis tritici) bestäubt. Die Versuchspflanzen wurden anschließend im Gewächshaus bei Temperaturen zwischen 20 und 24°C und 60 bis 90 % relativer Luftfeuchtigkeit aufgestellt. Nach 7 Tagen wurde das Ausmaß der Mehltauentwicklung visuell in % Befall der gesamten Blattfläche ermittelt.

In the case of O=C(Cc1ccccc1)NC(=NOCC1CC1)c1c(Cl)ccc(F)c1Cl [II.1, N-Phenylacetyl-2,6-dichlor-5-fluorbenzamid-[O-cyclopropylmethyl]oxim], the “Ausmaß der Mehltauentwicklung (Befall)” value [1] is reported as “keinen Befall”, the “%-Befall der Blätter nach Applikation von ... ppm-haltiger wäßriger Wirkstoffaufbereitung” value ([2]; 16 ppm) is reported as 0% and the “%-Befall der Blätter nach Applikation von ... ppm-haltiger wäßriger Wirkstoffaufbereitung” value ([2]; 63 ppm) is reported as 0%.
